From patent publication EP0801947B1, “Use of octopirox as skin depigmentation agent” (L'OREAL, priority 1996, dated 1997)

System: tyrosinase de champignons
Test: Inhibition of the dopa-oxidase activity of mushroom tyrosinase (dopachrome formation followed by visible spectrometry at 475 nm)
Assay type: biochemical
From the text: Un test a mis en évidence l'activité de l'octopirox comme inhibiteur de la tyrosinase par évaluation de son effet inhibiteur sur l'activité dopa-oxydase de la tyrosinase des mélanocytes de champignons.
Selon ce test, on suit par spectrométrie visible à 475 nm la quantité de dopachrome formée au cours de la chaîne de réaction de transformation de la tyrosine en mélanine, en fonction du temps. Ces réactions sont catalysées in vitro par la tyrosinase de champignons, en présence d'un co-substrat réducteur (la L-dopa en petite quantité) pour initier la réaction d'hydroxylation de la L-tyrosine en L-dopa, laquelle est ensuite oxydée catalytiquement en dopaquinone puis en dopachrome, produit intermédiaire avant les réactions d'oxydation non enzymatiques aboutissant à la formation de mélanine.
Le milieu réactionnel utilisé pour réaliser ce test comprend 1 ml d'une solution de L-tyrosine à 2.10^-3 M dans du tampon phosphate 0,1 M de pH = 6,5, 0,1 ml de solution de L-dopa à 10^-4 M dans le tampon phosphate, 0,05 ml de solution de tyrosinase de champignons à 2.400 unités/ml dans le tampon phosphate et 1,85 ml de solution de l'inhibiteur à 10^-2 M dans le tampon phosphate. Pour le témoin, la quantité d'inhibiteur a été remplacée par de l'éthanol. […]
La concentration de 10^-2 M d'octopirox dans le milieu réactionnel correspond à une quantité équimolaire par rapport à la tyrosine utilisée. […]

temps pour obtenir le même pourcentage de dopachrome formée, par exemple 100 % (inhibitor solution 10^-2 M in phosphate buffer 0,1 M pH 6,5, L-tyrosine 2.10^-3 M, L-dopa 10^-4 M, control (ethanol) 9,5 minutes, figure 1 curves (b)): 14 min
Structure (SMILES): Cc1cc(CC(C)CC(C)(C)C)n(O)c(=O)c1 (centres unmarked) [octopirox, 1-hydroxy-4-méthyl-6-(2,4,4-triméthylpentyl)-2(1H)-pyridinone]
quantité de dopachrome formée au cours du temps (inhibitor solution 10^-2 M, compared with control curve (a), figure 1, result in words): net ralentissement de la quantité de dopachrome formée au cours du temps
